Converted amounts (≈) assume the structure as drawn.
What was measured:
Assay in all cases: In vitro antibacterial evaluation: minimum inhibitory concentration (MIC), broth dilution method
Format in all cases: cell-based
Details in all cases: 18 hours at 35° C.
[1] = tested on: Staphylococcus sp.
Procedure, shortened: (§1)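 Susceptibility determined by NCCLS-recommended broth dilution (M7-A2), Muller-Hinton II […]. Concentration span 64-0.06 μg/mL, inoculum 5×10^5 CFU/mL. Isolates include strains resistant to methicillin, penicillin and/or vancomycin.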

[2] = tested on: Escherichia coli
Procedure, shortened: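 Values are minimum inhibitory concentrations, meaning the smallest antibiotic concentration that stops growth of the organism. They come from broth dilution in Muller-Hinton II […] per NCCLS guidance (M7-A2), using 5×10^5 CFU/mL and concentrations from 64 to 0.06 μg/mL.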

[3] = tested on: Streptococcus sp.
Procedure, shortened: as §1

[4] = tested on: Enterococcus sp.
Procedure, shortened: as §1

[5] = Streptococcus agalactiae (GC 4564)
[6] = Streptococcus pneumoniae (ATCC 6301)
[7] = Streptococcus pneumoniae (GC 1894)
[8] = Streptococcus pneumoniae (GC 4565)
[9] = Streptococcus pyogenes (GC 4563)
[10] = broth dilution, inoculum 5×10^5 CFU/mL
[11] = Enterococcus faecalis (ATCC 29212)
[12] = Enterococcus faecalis (GC 2242)
[13] = Enterococcus faecalis (GC 2691)
[14] = Enterococcus faecalis (GC 3059)
[15] = Enterococcus faecalis (GC 4552)
[16] = Enterococcus faecalis (GC 4553)
[17] = Enterococcus faecalis (GC 4554)
[18] = Enterococcus faecalis (GC 6189)

SMILES: CC(c1ccccc1)C1NC(=O)CNC(=O)C(CO)NC(=O)C(C(O)C2CNC(=N)N2C2OC(CO)C(O)C(O)C2O)NC(=O)C(C(O)C2CNC(=N)N2)NC(=O)C(Cc2ccc(OC3OC(CO)C(OC4OC(CO)C(O)C(OCc5ccc(OCc6ccccc6)cc5)C4O)C(O)C3O)cc2)NC1=O (stereo not drawn) [Example 231c]
- MIC Coagulase Negative Staphylococcus (GC 4547) [1]: 2 µg/mL (≈ 1.34 µM)
- MIC Coagulase Negative Staphylococcus (GC 4548) [1]: 0.5 µg/mL (≈ 0.335 µM)
- MIC Coagulase Negative Staphylococcus (GC 4549) [1]: 0.5 µg/mL (≈ 0.335 µM)
- MIC Coagulase Negative Staphylococcus (GC 4551) [1]: 1 µg/mL (≈ 0.67 µM)
- MIC Coagulase Negative Staphylococcus (GC 6257) [1]: 0.5 µg/mL (≈ 0.335 µM)
- MIC Staphylococcus aureus (ATCC 29213) [1]: 1 µg/mL (≈ 0.67 µM)
- MIC Staphylococcus aureus (GC 1131) [1]: 2 µg/mL (≈ 1.34 µM)
- MIC Staphylococcus aureus (GC 3051) [1]: 2 µg/mL (≈ 1.34 µM)
- MIC Staphylococcus aureus (GC 3053) [1]: 2 µg/mL (≈ 1.34 µM)
- MIC Staphylococcus aureus (GC 4541) [1]: 2 µg/mL (≈ 1.34 µM)
- MIC Staphylococcus aureus (GC 4542) [1]: 2 µg/mL (≈ 1.34 µM)
- MIC Staphylococcus aureus (GC 4544) [1]: 2 µg/mL (≈ 1.34 µM)
- MIC Staphylococcus aureus (GC 4545) [1]: 2 µg/mL (≈ 1.34 µM)
- MIC Staphylococcus aureus-SMITH (GC 4543) [1]: 1 µg/mL (≈ 0.67 µM)
- MIC Staphylococcus haemolyticus (GC 4546) [1]: 1 µg/mL (≈ 0.67 µM)
- MIC Escherichia coli (GC 4560) [2]: 2 µg/mL (≈ 1.34 µM)
- MIC Streptococcus agalactiae (GC 4564) [3, 5]: <0.12 µg/mL
- MIC Streptococcus pneumoniae (ATCC 6301) [3, 6]: <0.12 µg/mL
- MIC Streptococcus pneumoniae (GC 1894) [3, 7]: <0.12 µg/mL
- MIC Streptococcus pneumoniae (GC 4565) [3, 8]: <0.12 µg/mL
- MIC Streptococcus pyogenes (GC 4563) [3, 9]: <0.12 µg/mL
- MIC Streptococcus agalactiae (GC 4564) [3, 10]: <0.12 µg/mL
- MIC Streptococcus pneumoniae (ATCC 6301) [3, 10]: <0.12 µg/mL
- MIC Streptococcus pneumoniae (GC 1894) [3, 10]: <0.12 µg/mL
- MIC Streptococcus pneumoniae (GC 4565) [3, 10]: <0.12 µg/mL
- MIC Streptococcus pyogenes (GC 4563) [3, 10]: <0.12 µg/mL
- MIC Enterococcus avium (GC 4558) ([4]; Enterococcus avium (GC 4558)): 4 µg/mL (≈ 2.68 µM)
- MIC Enterococcus faecalis (ATCC 29212) [4, 11]: 4 µg/mL (≈ 2.68 µM)
- MIC Enterococcus faecalis (GC 2242) [4, 12]: 4 µg/mL (≈ 2.68 µM)
- MIC Enterococcus faecalis (GC 2691) [4, 13]: 8 µg/mL (≈ 5.36 µM)
- MIC Enterococcus faecalis (GC 3059) [4, 14]: 4 µg/mL (≈ 2.68 µM)
- MIC Enterococcus faecalis (GC 4552) [4, 15]: 4 µg/mL (≈ 2.68 µM)
- MIC Enterococcus faecalis (GC 4553) [4, 16]: 4 µg/mL (≈ 2.68 µM)
- MIC Enterococcus faecalis (GC 4554) [4, 17]: 4 µg/mL (≈ 2.68 µM)
- MIC Enterococcus faecalis (GC 6189) [4, 18]: 4 µg/mL (≈ 2.68 µM)
- MIC Enterococcus faecium (GC 2243) ([4]; Enterococcus faecium (GC 2243)): 4 µg/mL (≈ 2.68 µM)
- MIC Enterococcus faecium (GC 4556) ([4]; Enterococcus faecium (GC 4556)): 4 µg/mL (≈ 2.68 µM)
- MIC Enterococcus faecium (GC 4557) ([4]; Enterococcus faecium (GC 4557)): 4 µg/mL (≈ 2.68 µM)
- MIC Enterococcus avium (GC 4558) [4, 10]: 4 µg/mL (≈ 2.68 µM)
- MIC Enterococcus faecalis (ATCC 29212) [4, 10]: 4 µg/mL (≈ 2.68 µM)
- MIC Enterococcus faecalis (GC 2242) [4, 10]: 4 µg/mL (≈ 2.68 µM)
- MIC Enterococcus faecalis (GC 2691) [4, 10]: 8 µg/mL (≈ 5.36 µM)
- MIC Enterococcus faecalis (GC 3059) [4, 10]: 4 µg/mL (≈ 2.68 µM)
- MIC Enterococcus faecalis (GC 4552) [4, 10]: 4 µg/mL (≈ 2.68 µM)
- MIC Enterococcus faecalis (GC 4553) [4, 10]: 4 µg/mL (≈ 2.68 µM)
- MIC Enterococcus faecalis (GC 4554) [4, 10]: 4 µg/mL (≈ 2.68 µM)
- MIC Enterococcus faecalis (GC 6189) [4, 10]: 4 µg/mL (≈ 2.68 µM)
- MIC Enterococcus faecium (GC 2243) [4, 10]: 4 µg/mL (≈ 2.68 µM)
- MIC Enterococcus faecium (GC 4556) [4, 10]: 4 µg/mL (≈ 2.68 µM)
- MIC Enterococcus faecium (GC 4557) [4, 10]: 4 µg/mL (≈ 2.68 µM)

SMILES: COc1ccc(COCC2OC(OC3C(CO)OC(Oc4ccc(CC5NC(=O)C(C(C)c6ccccc6)NC(=O)CNC(=O)C(CO)NC(=O)C(C(O)C6CNC(=N)N6C6OC(CO)C(O)C(O)C6O)NC(=O)C(C(O)C6CNC(=N)N6)NC5=O)cc4)C(O)C3O)C(O)C(O)C2O)cc1 (stereo not drawn) [Example 232, Cyclo[glycyl-β-methylphenylalanyl-O-[4-O-[6-O-(4-methoxybenzyl)hexopyranosyl]hexopyranosyl]tyrosyl-3-(2-iminoimidazolidin-4-yl)seryl-3-(3-hexopyranosyl-2-iminoimidazolidin-4-yl)serylseryl]]
- MIC Coagulase Negative Staphylococcus (GC 4547) [1]: 2 µg/mL (≈ 1.41 µM)
- MIC Coagulase Negative Staphylococcus (GC 4548) [1]: 2 µg/mL (≈ 1.41 µM)
- MIC Coagulase Negative Staphylococcus (GC 4549) [1]: 1 µg/mL (≈ 0.707 µM)
- MIC Coagulase Negative Staphylococcus (GC 4551) [1]: 4 µg/mL (≈ 2.83 µM)
- MIC Coagulase Negative Staphylococcus (GC 6257) [1]: 2 µg/mL (≈ 1.41 µM)
- MIC Staphylococcus aureus (ATCC 29213) [1]: 4 µg/mL (≈ 2.83 µM)
- MIC Staphylococcus aureus (GC 1131) [1]: 4 µg/mL (≈ 2.83 µM)
- MIC Staphylococcus aureus (GC 3051) [1]: 4 µg/mL (≈ 2.83 µM)
- MIC Staphylococcus aureus (GC 3053) [1]: 8 µg/mL (≈ 5.65 µM)
- MIC Staphylococcus aureus (GC 4541) [1]: 4 µg/mL (≈ 2.83 µM)
- MIC Staphylococcus aureus (GC 4542) [1]: 4 µg/mL (≈ 2.83 µM)
- MIC Staphylococcus aureus (GC 4544) [1]: 4 µg/mL (≈ 2.83 µM)
- MIC Staphylococcus aureus (GC 4545) [1]: 4 µg/mL (≈ 2.83 µM)
- MIC Staphylococcus aureus-SMITH (GC 4543) [1]: 4 µg/mL (≈ 2.83 µM)
- MIC Staphylococcus haemolyticus (GC 4546) [1]: 2 µg/mL (≈ 1.41 µM)
- MIC Escherichia coli (ATCC 25922) ([2]; Escherichia coli (ATCC 25922)): >64 µg/mL
- MIC Escherichia coli (GC 4559) ([2]; Escherichia coli (GC 4559)): 64 µg/mL (≈ 45.2 µM)
- MIC Escherichia coli (GC 4560) [2]: 2 µg/mL (≈ 1.41 µM)
- MIC Streptococcus agalactiae (GC 4564) [3, 5]: 2 µg/mL (≈ 1.41 µM)
- MIC Streptococcus pneumoniae (ATCC 6301) [3, 6]: 0.5 µg/mL (≈ 0.353 µM)
- MIC Streptococcus pneumoniae (GC 1894) [3, 7]: 0.5 µg/mL (≈ 0.353 µM)
- MIC Streptococcus pneumoniae (GC 4565) [3, 8]: 1 µg/mL (≈ 0.707 µM)
- MIC Streptococcus pyogenes (GC 4563) [3, 9]: 2 µg/mL (≈ 1.41 µM)
- MIC Streptococcus agalactiae (GC 4564) [3, 10]: 2 µg/mL (≈ 1.41 µM)
- MIC Streptococcus pneumoniae (ATCC 6301) [3, 10]: 0.5 µg/mL (≈ 0.353 µM)
- MIC Streptococcus pneumoniae (GC 1894) [3, 10]: 0.5 µg/mL (≈ 0.353 µM)
- MIC Streptococcus pneumoniae (GC 4565) [3, 10]: 1 µg/mL (≈ 0.707 µM)
- MIC Streptococcus pyogenes (GC 4563) [3, 10]: 2 µg/mL (≈ 1.41 µM)
- MIC Enterococcus avium (GC 4558) ([4]; Enterococcus avium (GC 4558)): 32 µg/mL (≈ 22.6 µM)
- MIC Enterococcus faecalis (ATCC 29212) [4, 11]: 32 µg/mL (≈ 22.6 µM)
- MIC Enterococcus faecalis (GC 2242) [4, 12]: 16 µg/mL (≈ 11.3 µM)
- MIC Enterococcus faecalis (GC 2691) [4, 13]: 32 µg/mL (≈ 22.6 µM)
- MIC Enterococcus faecalis (GC 3059) [4, 14]: 32 µg/mL (≈ 22.6 µM)
- MIC Enterococcus faecalis (GC 4552) [4, 15]: 32 µg/mL (≈ 22.6 µM)
- MIC Enterococcus faecalis (GC 4553) [4, 16]: 32 µg/mL (≈ 22.6 µM)
- MIC Enterococcus faecalis (GC 4554) [4, 17]: 32 µg/mL (≈ 22.6 µM)
- MIC Enterococcus faecalis (GC 6189) [4, 18]: 64 µg/mL (≈ 45.2 µM)
- MIC Enterococcus faecium (GC 2243) ([4]; Enterococcus faecium (GC 2243)): 16 µg/mL (≈ 11.3 µM)
- MIC Enterococcus faecium (GC 4556) ([4]; Enterococcus faecium (GC 4556)): 32 µg/mL (≈ 22.6 µM)
- MIC Enterococcus faecium (GC 4557) ([4]; Enterococcus faecium (GC 4557)): 4 µg/mL (≈ 2.83 µM)
- MIC Enterococcus avium (GC 4558) [4, 10]: 32 µg/mL (≈ 22.6 µM)
- MIC Enterococcus faecalis (ATCC 29212) [4, 10]: 32 µg/mL (≈ 22.6 µM)
- MIC Enterococcus faecalis (GC 2242) [4, 10]: 16 µg/mL (≈ 11.3 µM)
- MIC Enterococcus faecalis (GC 2691) [4, 10]: 32 µg/mL (≈ 22.6 µM)
- MIC Enterococcus faecalis (GC 3059) [4, 10]: 32 µg/mL (≈ 22.6 µM)
- MIC Enterococcus faecalis (GC 4552) [4, 10]: 32 µg/mL (≈ 22.6 µM)
- MIC Enterococcus faecalis (GC 4553) [4, 10]: 32 µg/mL (≈ 22.6 µM)
- MIC Enterococcus faecalis (GC 4554) [4, 10]: 32 µg/mL (≈ 22.6 µM)
- MIC Enterococcus faecalis (GC 6189) [4, 10]: 64 µg/mL (≈ 45.2 µM)
- MIC Enterococcus faecium (GC 2243) [4, 10]: 16 µg/mL (≈ 11.3 µM)
- MIC Enterococcus faecium (GC 4556) [4, 10]: 32 µg/mL (≈ 22.6 µM)
- MIC Enterococcus faecium (GC 4557) [4, 10]: 4 µg/mL (≈ 2.83 µM)

— US8247211B2, “Glycopeptide antibiotics” (American Cyanamid Company, priority 2001, dated 2012)
